The IC50 is the point on the concentration scale where inhibition reaches its midpoint.

This is an account of results in ChEMBL document CHEMBL1201862, “PubChem BioAssay data set” (2004).

Common to all, as to type: functional
Assay [1] addresses T1, Orexin/Hypocretin receptor type 1 (Homo sapiens, UniProt O43613).
T1 sequence (O43613 whole entry): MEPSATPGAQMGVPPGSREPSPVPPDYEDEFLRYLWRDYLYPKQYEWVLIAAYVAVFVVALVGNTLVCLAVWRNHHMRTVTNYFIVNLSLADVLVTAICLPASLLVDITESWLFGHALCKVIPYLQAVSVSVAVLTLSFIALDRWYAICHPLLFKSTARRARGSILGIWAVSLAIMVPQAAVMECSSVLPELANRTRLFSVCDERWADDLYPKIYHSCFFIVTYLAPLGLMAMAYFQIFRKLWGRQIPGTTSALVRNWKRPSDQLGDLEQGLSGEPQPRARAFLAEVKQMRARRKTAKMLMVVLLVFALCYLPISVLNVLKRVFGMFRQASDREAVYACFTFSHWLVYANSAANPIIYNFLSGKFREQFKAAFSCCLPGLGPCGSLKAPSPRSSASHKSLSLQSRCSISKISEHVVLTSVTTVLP
As to the kind of experiment: Homogeneous Time Resolved Fluorescence (HTRF)-based cell-based high throughput dose response assay for antagonists of the orexin 1 receptor (OX1R; HCRTR1). [Related pubchem assays (depositor defined):AID434989, AID435008, AID463079, AID485270, AID492963, AID492964, AID492965, AID493232, AID504717, AID504718]. For orientation: Time-resolved FRET reads energy transfer from a long-lived donor to a nearby acceptor.

Assay [2] can be described thus: Counterscreen for antagonists of the orexin 1 receptor (OX1R; HCRTR1): Fluorescence-based cell-based high throughput dose response assay to identify antagonists of the parental CHO cell line. [Related pubchem assays (depositor defined):AID434989, AID435008, AID463079, AID485270, AID492963, AID492964, AID492965, AID493232, AID504699, AID504701]. On the technique in general: Counterscreens check selectivity or assay interference.

For assay [3], the target named is T2, Orexin receptor type 2 (Homo sapiens, UniProt O43614).
T2 sequence (O43614 whole entry): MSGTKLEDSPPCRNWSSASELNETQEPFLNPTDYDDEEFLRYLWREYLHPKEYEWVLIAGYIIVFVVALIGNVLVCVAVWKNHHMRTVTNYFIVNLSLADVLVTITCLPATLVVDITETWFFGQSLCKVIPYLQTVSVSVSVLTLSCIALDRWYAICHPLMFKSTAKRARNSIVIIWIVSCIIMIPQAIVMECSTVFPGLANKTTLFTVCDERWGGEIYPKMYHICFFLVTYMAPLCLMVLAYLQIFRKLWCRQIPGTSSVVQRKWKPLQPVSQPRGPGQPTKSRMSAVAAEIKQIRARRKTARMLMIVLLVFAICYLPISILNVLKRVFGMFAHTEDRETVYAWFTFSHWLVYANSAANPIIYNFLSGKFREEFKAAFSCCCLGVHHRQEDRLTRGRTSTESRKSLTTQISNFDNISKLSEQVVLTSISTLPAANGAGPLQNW
The assay is described as follows: Counterscreen assay for antagonists of the orexin 1 receptor (OX1R; HCRTR1): Fluorescence-based cell-based dose response assay for antagonists of the orexin 2 receptor (OX2R; HCRTR2), run by assay provider.

The target of assay [4] is T2, Orexin receptor type 2. As to the kind of experiment: Counterscreen assay for antagonists of the orexin 1 receptor (OX1R; HCRTR1): Homogeneous Time Resolved Fluorescence (HTRF)-based cell-based dose response assay for antagonists of the orexin 2 receptor (OX2R; HCRTR2), run by assay provider.
A further assay concerns CHO-K1. As to the kind of experiment: Counterscreen for antagonists of the orexin 1 receptor (OX1R; HCRTR1): Homogeneous time resolved fluorescence (HTRF)-based cell-based dose response assay to identify antagonists of the parental CHO-K1 cell line. [Related pubchem assays (depositor defined):AID434989, AID435008, AID463079, AID485270, AID492963, AID492964, AID492965, AID493232, AID504699, AID504701]. The conditions noted are these: Cricetulus griseus.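 Note: potency for inhibition of ATP-stimulated IP1 production as antagonists.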

The target in assay [5] is T1, Orexin/Hypocretin receptor type 1. As to the kind of experiment: Fluorescence-based cell-based high throughput dose response assay for antagonists of the orexin 1 receptor (OX1R; HCRTR1). [Related pubchem assays (depositor defined):AID434989, AID435008, AID463079, AID485270, AID492963, AID492964, AID492965, AID493232, AID504717, AID504718].
Assay [6] has as its target T3, Sentrin-specific protease 8 (Homo sapiens, UniProt Q96LD8).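 Note: luminescence read-out of SENP8 inhibition, dose-response confirmation following an ultra-high-throughput screen.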
T3 sequence (Q96LD8 whole entry): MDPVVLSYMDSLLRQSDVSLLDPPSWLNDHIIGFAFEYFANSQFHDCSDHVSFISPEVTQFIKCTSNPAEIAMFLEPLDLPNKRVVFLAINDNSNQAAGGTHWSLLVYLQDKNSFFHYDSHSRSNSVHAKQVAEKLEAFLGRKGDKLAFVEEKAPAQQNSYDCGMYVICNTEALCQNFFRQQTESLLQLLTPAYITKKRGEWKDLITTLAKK

The target of assay [7] is T4, Caspase-3 (Homo sapiens, UniProt P42574).
T4 sequence (P42574 whole entry): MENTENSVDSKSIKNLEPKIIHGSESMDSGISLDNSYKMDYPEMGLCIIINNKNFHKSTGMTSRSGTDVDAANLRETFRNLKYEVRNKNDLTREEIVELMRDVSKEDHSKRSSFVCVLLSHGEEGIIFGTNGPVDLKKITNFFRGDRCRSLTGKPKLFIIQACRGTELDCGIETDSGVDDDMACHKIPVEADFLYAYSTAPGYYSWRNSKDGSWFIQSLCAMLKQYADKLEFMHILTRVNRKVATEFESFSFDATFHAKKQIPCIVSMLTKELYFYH

In assay [8] the target is T5, Sentrin-specific protease 6 (Homo sapiens, UniProt Q9GZR1).
T5 sequence (Q9GZR1 whole entry): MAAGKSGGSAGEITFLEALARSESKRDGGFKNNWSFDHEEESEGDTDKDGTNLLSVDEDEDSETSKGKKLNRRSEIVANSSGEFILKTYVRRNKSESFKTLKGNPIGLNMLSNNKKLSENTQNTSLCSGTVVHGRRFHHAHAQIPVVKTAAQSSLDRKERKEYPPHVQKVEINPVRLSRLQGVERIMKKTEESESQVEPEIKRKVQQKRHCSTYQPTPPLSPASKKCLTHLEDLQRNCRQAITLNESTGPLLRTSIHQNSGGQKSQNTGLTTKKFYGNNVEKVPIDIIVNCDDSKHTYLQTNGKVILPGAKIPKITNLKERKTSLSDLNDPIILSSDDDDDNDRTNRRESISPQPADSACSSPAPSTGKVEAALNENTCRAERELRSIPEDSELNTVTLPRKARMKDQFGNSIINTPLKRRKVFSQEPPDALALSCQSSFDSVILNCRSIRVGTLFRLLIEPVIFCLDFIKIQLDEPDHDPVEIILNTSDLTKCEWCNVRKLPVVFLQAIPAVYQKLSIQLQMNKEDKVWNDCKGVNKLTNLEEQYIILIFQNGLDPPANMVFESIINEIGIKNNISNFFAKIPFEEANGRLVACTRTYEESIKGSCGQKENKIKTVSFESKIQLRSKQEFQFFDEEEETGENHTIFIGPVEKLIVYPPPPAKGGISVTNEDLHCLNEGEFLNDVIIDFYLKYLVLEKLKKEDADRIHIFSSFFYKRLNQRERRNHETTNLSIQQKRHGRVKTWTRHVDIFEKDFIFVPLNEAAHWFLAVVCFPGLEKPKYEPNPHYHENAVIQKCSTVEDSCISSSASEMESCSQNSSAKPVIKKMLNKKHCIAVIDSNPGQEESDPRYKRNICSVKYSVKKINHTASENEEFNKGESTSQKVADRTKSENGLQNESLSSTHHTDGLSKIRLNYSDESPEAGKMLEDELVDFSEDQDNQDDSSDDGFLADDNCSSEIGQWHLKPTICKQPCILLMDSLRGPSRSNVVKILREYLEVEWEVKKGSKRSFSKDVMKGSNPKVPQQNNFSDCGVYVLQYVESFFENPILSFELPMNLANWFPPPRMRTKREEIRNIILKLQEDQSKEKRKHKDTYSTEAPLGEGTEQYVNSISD

Assay [9] deals with T5, Sentrin-specific protease 6. As to the kind of experiment: SAR Analysis of small molecule inhibitors of Sentrin-specific protease 6 (SENP6) using a Luminescent assay. [Related pubchem assays (depositor defined):AID2582, AID2599].
The target in assay [10] is T4, Caspase-3. The assay is described as follows: SAR Analysis of small molecule inhibitors of Sentrin-specific proteases (SENPs) using a Caspase-3 Selectivity assay. [Related pubchem assays (depositor defined):AID2540, AID2599, AID434973, AID489001].
Assay [11] concerns the target T6, Sentrin-specific protease 7 (Homo sapiens, UniProt Q9BQF6).
T6 sequence (Q9BQF6 whole entry): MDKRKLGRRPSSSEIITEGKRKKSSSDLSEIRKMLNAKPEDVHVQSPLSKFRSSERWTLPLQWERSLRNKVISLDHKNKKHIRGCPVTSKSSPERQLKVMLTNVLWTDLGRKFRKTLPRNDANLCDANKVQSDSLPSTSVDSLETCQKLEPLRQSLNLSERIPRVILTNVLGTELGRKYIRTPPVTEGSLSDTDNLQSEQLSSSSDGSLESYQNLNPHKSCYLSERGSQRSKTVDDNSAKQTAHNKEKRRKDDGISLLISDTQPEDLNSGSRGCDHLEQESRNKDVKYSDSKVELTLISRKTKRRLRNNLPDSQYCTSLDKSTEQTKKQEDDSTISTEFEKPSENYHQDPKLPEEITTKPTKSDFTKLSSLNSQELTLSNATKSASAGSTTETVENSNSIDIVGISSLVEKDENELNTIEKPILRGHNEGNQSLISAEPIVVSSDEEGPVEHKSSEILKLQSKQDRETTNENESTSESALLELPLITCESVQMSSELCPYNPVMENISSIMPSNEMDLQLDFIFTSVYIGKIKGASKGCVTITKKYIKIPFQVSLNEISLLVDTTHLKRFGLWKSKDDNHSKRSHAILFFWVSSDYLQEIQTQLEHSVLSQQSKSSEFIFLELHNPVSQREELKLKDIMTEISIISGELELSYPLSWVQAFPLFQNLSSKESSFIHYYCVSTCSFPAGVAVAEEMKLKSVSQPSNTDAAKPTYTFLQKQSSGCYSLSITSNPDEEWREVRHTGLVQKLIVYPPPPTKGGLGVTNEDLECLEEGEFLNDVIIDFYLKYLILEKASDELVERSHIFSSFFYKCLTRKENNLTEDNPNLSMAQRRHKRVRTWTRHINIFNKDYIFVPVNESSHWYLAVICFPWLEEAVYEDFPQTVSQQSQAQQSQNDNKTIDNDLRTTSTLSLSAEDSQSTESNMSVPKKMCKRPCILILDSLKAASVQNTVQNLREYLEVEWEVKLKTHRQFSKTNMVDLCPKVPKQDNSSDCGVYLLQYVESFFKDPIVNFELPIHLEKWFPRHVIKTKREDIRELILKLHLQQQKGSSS

Assay [12] concerns the target T6, Sentrin-specific protease 7. As to the kind of experiment: inhibition of human SENP7 cleavage activity – biochemical, luminescence, SAR follow-up (AID 504497).

SMILES strings stand for the structures. Calls of active or inactive are those of the source. Bounds are passed on as bounds.

As to `Cc1c(C(=O)Nc2ccc(N3CCOCC3)cc2)oc2ccccc12`, the IC50 was 0.277 µM (active) in [1]; > 49.8 µM (inactive) in assay [2]; > 88.8 µM (inactive) at Orexin receptor type 2 [3]; > 50 µM (inactive) at Orexin receptor type 2 [4]; > 66.2 µM (inactive) with CHO-K1; 1.46 µM (active) in [5].
With `Fc1ccc(COc2ccc(C(=S)N3CCCC3)cc2)cc1`, the IC50 in assay [6] was 2.46 µM (active); on Caspase-3 [7], 7.14 µM (active); in assay [8], 8.99 µM (active); in assay [9] it was 1.68 µM (active); at Caspase-3 [10] it was 1.31 µM (active); in [11] it was 5.33 µM (active). Further, in [12], the IC50 was 2.16 µM (active).
With `O=C(N/N=C/c1c(Cl)[nH]c2ccccc12)c1sc2ccccc2c1Cl`, the half-maximal inhibitory concentration (IC50) in [1] was 2.14 µM (active); in assay [2], > 49.7 µM (inactive); on Orexin receptor type 2 [3], > 88.8 µM (inactive); at Orexin receptor type 2 [4], 6.88 µM (active); in the assay on CHO-K1 it was > 66.2 µM (inactive); in assay [5], 3.23 µM (active).
